Assay results as given in article PMC7600264, “Quasi-Irreversible Inhibition of CYP2D6 by Berberine” (Pharmaceutics, 2020).
Read-outs that look alike come from different tables or passages of the source. Each block holds one compound with its values, some of them ahead of it.

What was measured:
CYP2C8 = target: T1, CYP2C8 (Homo sapiens, UniProt P10632); assay: Direct CYP inhibition assay using pooled HLM; details: pooled HLM
T1 sequence (P10632 1-490): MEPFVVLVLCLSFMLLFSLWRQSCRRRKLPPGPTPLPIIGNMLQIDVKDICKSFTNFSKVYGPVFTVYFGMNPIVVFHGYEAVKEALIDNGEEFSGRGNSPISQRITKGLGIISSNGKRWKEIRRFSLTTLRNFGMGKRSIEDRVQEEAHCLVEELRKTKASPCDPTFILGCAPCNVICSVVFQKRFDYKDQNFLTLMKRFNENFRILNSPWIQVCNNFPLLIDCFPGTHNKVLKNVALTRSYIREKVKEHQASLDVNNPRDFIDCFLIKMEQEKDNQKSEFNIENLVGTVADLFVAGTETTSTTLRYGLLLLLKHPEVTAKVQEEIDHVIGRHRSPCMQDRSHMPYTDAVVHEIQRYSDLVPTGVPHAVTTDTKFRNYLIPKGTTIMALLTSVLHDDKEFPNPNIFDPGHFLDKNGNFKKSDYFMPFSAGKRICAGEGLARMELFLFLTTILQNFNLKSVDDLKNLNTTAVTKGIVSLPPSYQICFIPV
Experimental: (§1) The enzyme reactions were initiated by adding NADPH (1 mM), and the mixtures were incubated at 37 °C for 5 min in a shaking water bath (100 rpm). The reaction was terminated by adding ice-cold acetonitrile (ACN) containing CBZ (100 nM) and 4-methyl-umbelliferone (300 nM) as internal standards (IS).
(§2) The chromatographic separation was performed on an Agilent 1200 series HPLC system (Agilent Technologies, Santa Clara, CA, USA) equipped with an Atlantis^TM dC18 column (2.1 × 50 mm, 3 µm; Waters Corporation, Milford, MA, USA) with a SecuityGuard^TM C18 guard column (2.0 × 4.0 mm; Phenomenex, Torrance, CA, USA). The mobile phases consisted of double-deionized water (DDW) containing 0.1% (v/v) of formic acid (A) and ACN containing 0.1% (v/v) formic acid (B). […] The sample injection volume was 10 µL, and the total run time was 9.0 min. The column and auto-sampler compartments were maintained at 30 °C and 10 °C, respectively, throughout the analysis. The detection was performed using an API4000 Q-TRAP system equipped with a Turbo V Ion Spray^TM source (Applied Biosystems, Foster City, CA, USA). The operating conditions were optimized as follows: ionization voltage: 5500 V for positive-ion mode and −4500 V for negative-ion mode; ion source temperature: 550 °C; nebulizing gas flow: 50 L/min; auxiliary gas flow: 40 L/min; and curtain gas flow: 30 L/min. The samples were analyzed via multiple reaction monitoring (MRM) mode. […] The data acquisition and processing were performed using Analyst^TM software (version 1.5.2; Applied Biosystems, Foster City, CA, USA).

[1] = Metabolic stability and metabolite formation of BBR in pooled HLM; details: for Concentration in incubation mixture (elimination of BBR and formation of its metabolites): BBR 1 µM in pooled HLM with NADPH-generating system, mean ± SD
Experimental: To evaluate NADPH-dependent metabolism, BBR (1 µM) was incubated with pooled HLM (1 mg/mL) in the presence of the NADPH-regenerating system (1 mM of NADP^+, 5 mM of G6P, and 1 U/mL of G6PDH) to be a final volume of 200 µL. The reactions were quenched by adding the same volume of ice-cold ACN containing CBZ (100 nM) at 0, 7.5, 15, 30, 60, and 120 min of incubation. The incubation mixtures were centrifuged at 1000× g for 20 min at 4 °C, and the supernatants were analyzed by the LC-MS/MS system described in Section 2.2.
Meanwhile, to identify the known metabolites of BBR, an aliquot (5 µL) of the supernatant was injected into an accurate-MS system consisting of an Agilent 6530 Q-TOF LC/MS equipped with dual AJS ESI ion source (Agilent Technologies) and Agilent 1200 series HPLC system (Agilent Technologies). Chromatographic separations were performed on an Agilent Eclipse Plus C18 column (150 × 2.1 mm, 3.5 µm; Agilent Technologies) by gradient elution with a binary mobile phase consisting of DDW with 0.1% (v/v) formic acid (A) and ACN with 0.1% (v/v) formic acid (B) at a flow rate of 0.2 mL/min, where the mobile phase B was set as follows: 2% at 0 min, 20% at 15 min, and 30% at 20–25 min, followed by re-equilibration for 3 min.
In vitro metabolic stability parameters, including half-life (t1/2) and microsomal intrinsic clearance (CLint,mic), were determined according to our previous report [32]. The degradation t1/2 values of the microsomal stability studies were calculated using the following Equation (2):(2) t1/2=0.693/k, where k represents the first-order degradation rate constant. The k values were estimated by fitting a one-phase exponential decay model to the parent drug remaining (%) vs. incubation time plots using GraphPad Prism 5.0 (GraphPad Software Inc., San Diego, CA, USA).
The CLint,mic was determined using the in vitro half-life approach.

CYP1A2 = target: T2, CYP1A2 (Homo sapiens, UniProt P05177); assay: Direct CYP inhibition assay using pooled HLM; details: pooled HLM
T2 sequence (P05177 1-516): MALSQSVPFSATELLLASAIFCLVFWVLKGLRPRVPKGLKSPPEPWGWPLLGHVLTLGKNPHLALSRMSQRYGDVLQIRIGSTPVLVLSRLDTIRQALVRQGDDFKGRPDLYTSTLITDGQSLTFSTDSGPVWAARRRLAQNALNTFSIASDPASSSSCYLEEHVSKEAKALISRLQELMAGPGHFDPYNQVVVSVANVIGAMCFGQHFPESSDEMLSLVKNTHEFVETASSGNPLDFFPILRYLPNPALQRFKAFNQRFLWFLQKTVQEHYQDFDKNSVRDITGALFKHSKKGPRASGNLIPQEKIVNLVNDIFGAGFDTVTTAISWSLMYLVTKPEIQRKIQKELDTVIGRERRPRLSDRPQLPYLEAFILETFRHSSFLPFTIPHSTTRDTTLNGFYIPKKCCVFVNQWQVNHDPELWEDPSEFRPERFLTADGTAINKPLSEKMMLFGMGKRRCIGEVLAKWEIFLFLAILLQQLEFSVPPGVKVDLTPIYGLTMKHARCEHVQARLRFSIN
Experimental: as §1, §2

CYP3A4 = CYP3A4 (Homo sapiens, UniProt P08684); assay: Direct CYP inhibition assay using pooled HLM
Experimental: as §1, §2

CYP2C19 = CYP2C19 (Homo sapiens, UniProt P33261); assay: Direct CYP inhibition assay using pooled HLM; details: pooled HLM
Experimental: as §1, §2

CYP2E1 = CYP2E1 (Homo sapiens, UniProt P05181); assay: Direct CYP inhibition assay using pooled HLM; details: pooled HLM
Experimental: as §1, §2

CYP2B6 = target: T3, CYP2B6 (Homo sapiens, UniProt P20813); assay: Direct CYP inhibition assay using pooled HLM; details: pooled HLM
T3 sequence (P20813 1-491): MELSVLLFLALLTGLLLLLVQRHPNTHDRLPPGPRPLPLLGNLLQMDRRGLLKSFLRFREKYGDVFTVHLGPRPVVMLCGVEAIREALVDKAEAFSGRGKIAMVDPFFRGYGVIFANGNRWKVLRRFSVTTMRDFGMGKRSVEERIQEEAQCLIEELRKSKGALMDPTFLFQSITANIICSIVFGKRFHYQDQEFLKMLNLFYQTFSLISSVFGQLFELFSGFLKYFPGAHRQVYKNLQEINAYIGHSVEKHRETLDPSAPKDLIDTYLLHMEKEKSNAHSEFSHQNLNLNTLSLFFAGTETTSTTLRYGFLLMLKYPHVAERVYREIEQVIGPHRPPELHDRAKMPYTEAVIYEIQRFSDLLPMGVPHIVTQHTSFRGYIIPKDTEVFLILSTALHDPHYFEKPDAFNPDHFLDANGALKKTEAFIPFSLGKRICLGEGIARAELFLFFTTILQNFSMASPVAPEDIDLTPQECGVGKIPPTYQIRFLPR
Experimental: as §1, §2

CYP2D6 [2] = target: T4, CYP2D6 (Homo sapiens, UniProt P10635); assay: Metabolism-dependent CYP2D6 inhibition assay (IC50 shift) using pooled HLM; details: pooled HLM; for MDI (metabolism-dependent inhibition) of CYP2D6 (in words): pre-incubation with NADPH
Experimental: Pre-incubation was performed in pooled HLM (0.2 mg/mL) added with BBR, THB, TFD, or DMB, or rhCYP2D6 (10 pmol/mL) added with BBR, with or without NADPH (1 mM) in phosphate buffer (0.1 M; pH 7.4) for 30 min. Then, the CYP2D6 substrate (5 µM of dextromethorphan) and NADPH (1 mM) were added to the mixture and incubated for another 10 min. All incubations were carried out at 37 °C in a shaking water bath (100 rpm) using eight-well tube strips placed in an 8 × 12 rack, where the final volume of each reaction mixture was 200 µL. […] The enzyme reactions were quenched by adding an aliquot (200 µL) of ice-cold ACN containing CBZ (100 nM) as an IS. The samples were centrifuged, and the concentration of CYP2D6 metabolite (i.e., dextrorphan, produced by O-demethylation of dextromethorphan) in supernatants were analyzed using the LC-MS/MS method described in Section 2.2.

CYP2C9 = CYP2C9 (Homo sapiens, UniProt P11712); assay: Direct CYP inhibition assay using pooled HLM; details: pooled HLM
Experimental: as §1, §2

CYP2D6 [3] = target: T4, CYP2D6; assay: Direct CYP inhibition assay using pooled HLM
Experimental: as §1, §2

CYP2A6 = target: T5, CYP2A6 (Homo sapiens, UniProt P11509); assay: Direct CYP inhibition assay using pooled HLM; details: pooled HLM
T5 sequence (P11509 1-494): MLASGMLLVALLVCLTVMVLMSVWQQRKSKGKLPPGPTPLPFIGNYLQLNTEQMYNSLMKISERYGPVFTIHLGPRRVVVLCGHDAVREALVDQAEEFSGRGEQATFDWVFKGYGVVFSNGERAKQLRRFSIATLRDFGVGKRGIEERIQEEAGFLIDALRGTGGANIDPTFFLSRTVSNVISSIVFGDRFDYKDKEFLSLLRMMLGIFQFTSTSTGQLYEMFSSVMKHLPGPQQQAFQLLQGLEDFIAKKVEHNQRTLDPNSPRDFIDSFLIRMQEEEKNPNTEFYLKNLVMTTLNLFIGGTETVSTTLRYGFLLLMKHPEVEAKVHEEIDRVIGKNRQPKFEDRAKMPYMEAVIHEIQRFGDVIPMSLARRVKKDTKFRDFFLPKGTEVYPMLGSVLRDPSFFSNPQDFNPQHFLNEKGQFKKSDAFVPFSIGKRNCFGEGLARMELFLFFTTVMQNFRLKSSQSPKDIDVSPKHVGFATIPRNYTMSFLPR
Experimental: as §1, §2

[4] = human, pooled human liver microsomes

T4 sequence (P10635 whole entry): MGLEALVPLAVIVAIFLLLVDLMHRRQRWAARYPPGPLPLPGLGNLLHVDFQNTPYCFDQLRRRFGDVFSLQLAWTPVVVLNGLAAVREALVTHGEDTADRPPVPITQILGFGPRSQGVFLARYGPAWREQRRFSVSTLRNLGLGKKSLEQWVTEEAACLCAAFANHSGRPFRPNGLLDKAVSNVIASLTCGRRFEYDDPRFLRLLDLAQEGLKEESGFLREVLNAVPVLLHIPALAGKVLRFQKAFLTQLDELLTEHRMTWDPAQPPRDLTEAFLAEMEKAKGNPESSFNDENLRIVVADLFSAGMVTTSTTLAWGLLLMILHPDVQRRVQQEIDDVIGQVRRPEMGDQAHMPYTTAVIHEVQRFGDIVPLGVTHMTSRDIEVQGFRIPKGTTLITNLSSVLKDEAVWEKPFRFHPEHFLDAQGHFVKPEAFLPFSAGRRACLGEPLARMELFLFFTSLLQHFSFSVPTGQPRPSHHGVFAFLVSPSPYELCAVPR
CYP3A4, sequence (P08684 whole entry): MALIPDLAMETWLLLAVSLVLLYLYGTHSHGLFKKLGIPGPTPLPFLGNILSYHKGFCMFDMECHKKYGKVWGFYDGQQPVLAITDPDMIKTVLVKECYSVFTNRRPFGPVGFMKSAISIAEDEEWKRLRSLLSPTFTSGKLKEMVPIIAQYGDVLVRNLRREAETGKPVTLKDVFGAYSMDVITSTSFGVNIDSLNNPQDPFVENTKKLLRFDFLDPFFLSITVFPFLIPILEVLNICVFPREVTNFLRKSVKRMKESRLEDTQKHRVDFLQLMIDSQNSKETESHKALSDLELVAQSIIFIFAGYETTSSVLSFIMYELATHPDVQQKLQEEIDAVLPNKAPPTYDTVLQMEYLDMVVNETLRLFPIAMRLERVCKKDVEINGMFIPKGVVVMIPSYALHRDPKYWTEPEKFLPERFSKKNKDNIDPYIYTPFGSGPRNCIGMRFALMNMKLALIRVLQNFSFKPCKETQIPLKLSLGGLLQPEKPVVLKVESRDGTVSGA
CYP2E1, sequence (P05181 whole entry): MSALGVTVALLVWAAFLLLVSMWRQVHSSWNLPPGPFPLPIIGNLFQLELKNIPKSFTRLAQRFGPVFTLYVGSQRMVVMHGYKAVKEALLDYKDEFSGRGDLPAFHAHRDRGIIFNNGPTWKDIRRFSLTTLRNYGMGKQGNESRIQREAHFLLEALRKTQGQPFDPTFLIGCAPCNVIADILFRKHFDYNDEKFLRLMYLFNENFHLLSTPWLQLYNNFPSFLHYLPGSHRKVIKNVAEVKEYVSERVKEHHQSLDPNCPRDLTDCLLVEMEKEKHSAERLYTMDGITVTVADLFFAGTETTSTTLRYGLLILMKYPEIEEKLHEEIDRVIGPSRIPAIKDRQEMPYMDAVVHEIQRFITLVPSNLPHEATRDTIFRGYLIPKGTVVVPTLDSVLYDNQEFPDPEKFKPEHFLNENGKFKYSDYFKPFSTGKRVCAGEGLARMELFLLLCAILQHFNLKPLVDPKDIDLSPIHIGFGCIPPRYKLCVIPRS
CYP2C9, sequence (P11712 whole entry): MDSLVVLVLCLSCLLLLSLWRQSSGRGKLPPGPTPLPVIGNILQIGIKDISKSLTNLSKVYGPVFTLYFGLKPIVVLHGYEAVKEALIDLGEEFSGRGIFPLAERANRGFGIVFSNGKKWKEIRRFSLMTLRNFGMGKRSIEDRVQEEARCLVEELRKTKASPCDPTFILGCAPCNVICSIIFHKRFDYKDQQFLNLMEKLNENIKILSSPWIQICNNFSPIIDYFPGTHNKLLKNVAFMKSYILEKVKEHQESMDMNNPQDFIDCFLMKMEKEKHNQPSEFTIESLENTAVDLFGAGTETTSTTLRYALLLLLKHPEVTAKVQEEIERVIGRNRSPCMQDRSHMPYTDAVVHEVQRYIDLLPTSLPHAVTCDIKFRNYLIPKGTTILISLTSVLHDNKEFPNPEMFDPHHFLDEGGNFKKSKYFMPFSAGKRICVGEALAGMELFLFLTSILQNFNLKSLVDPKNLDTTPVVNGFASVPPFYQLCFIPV
CYP2C19, sequence (P33261 whole entry): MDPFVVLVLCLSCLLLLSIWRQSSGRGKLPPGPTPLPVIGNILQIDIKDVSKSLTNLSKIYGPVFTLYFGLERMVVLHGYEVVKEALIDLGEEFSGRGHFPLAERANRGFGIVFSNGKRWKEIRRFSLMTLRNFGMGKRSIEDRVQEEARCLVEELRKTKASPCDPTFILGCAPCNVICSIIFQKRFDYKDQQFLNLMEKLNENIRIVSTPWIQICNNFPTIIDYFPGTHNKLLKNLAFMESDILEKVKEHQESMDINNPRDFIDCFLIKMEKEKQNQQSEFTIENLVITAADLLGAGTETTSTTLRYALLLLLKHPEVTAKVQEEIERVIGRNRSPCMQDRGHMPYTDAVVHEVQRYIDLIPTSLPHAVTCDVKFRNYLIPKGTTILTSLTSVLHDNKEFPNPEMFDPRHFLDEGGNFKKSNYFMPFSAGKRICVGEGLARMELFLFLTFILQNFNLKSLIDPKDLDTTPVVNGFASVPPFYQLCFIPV

SMILES: COc1ccc2cc3[n+](cc2c1OC)CCc1cc2c(cc1-3)OCO2 [BBR, berberine]
Inhibition of CYP2C8 (in words) (CYP2C8; up to 100 µM): not markedly inhibited
Concentration in incubation mixture (elimination of BBR and formation of its metabolites) ([1]; 0 min): 1049 ± 16 nM
Concentration in incubation mixture (elimination of BBR and formation of its metabolites) ([1]; 7.5 min): 807 ± 11 nM
Concentration in incubation mixture (elimination of BBR and formation of its metabolites) ([1]; 15 min): 713 ± 12 nM
Concentration in incubation mixture (elimination of BBR and formation of its metabolites) ([1]; 30 min): 539 ± 4 nM
Concentration in incubation mixture (elimination of BBR and formation of its metabolites) ([1]; 60 min): 313 ± 15 nM
Concentration in incubation mixture (elimination of BBR and formation of its metabolites) ([1]; 120 min): 147 ± 5 nM
half-life at 1 µM [1, 4]: 35.4 min
microsomal CLint at 1 µM [1, 4]: 7.82 µL/min/mg
Metabolic stability in HLM (in words) ([1]; pooled HLM): moderately stable
Inhibition of CYP1A2 (in words) (CYP1A2; up to 100 µM): not markedly inhibited
Inhibition of CYP3A4 (in words) (CYP3A4; up to 100 µM, substrates MDZ and TST): not markedly inhibited
Inhibition of CYP2C19 (in words) (CYP2C19; up to 100 µM): not markedly inhibited
Inhibition of CYP2E1 (in words) (CYP2E1; up to 100 µM): not markedly inhibited
Inhibition of CYP2B6 (in words) (CYP2B6; up to 100 µM): not markedly inhibited
IC50 (CYP2D6 [2]; IC50 against CYP2D6, pre-incubation with NADPH, 30 min pre-incubation with NADPH): 1.66 µM
IC50 (CYP2D6 [2]; IC50 against CYP2D6, pre-incubation without NADPH, 30 min pre-incubation without NADPH): 12.4 µM
MDI (metabolism-dependent inhibition) of CYP2D6 (in words) (CYP2D6 [2]): exhibited MDI
Inhibition of CYP2C9 (in words) (CYP2C9; up to 100 µM): not markedly inhibited
IC50 (CYP2D6 [3]): 11.9 µM
Inhibition of CYP2A6 (in words) (CYP2A6; up to 100 µM): not markedly inhibited

IC50 (CYP2C8; read-out: IC50 CYP2C8, direct inhibition, 95% confidence intervals in parentheses): > 100 µM
Concentration in incubation mixture (elimination of BBR and formation of its metabolites) ([1]; 0 min): 6.1 ± 0.1 nM
Concentration in incubation mixture (elimination of BBR and formation of its metabolites) ([1]; 7.5 min): 24.1 ± 0.3 nM
Concentration in incubation mixture (elimination of BBR and formation of its metabolites) ([1]; 15 min): 38.1 ± 0.5 nM
Concentration in incubation mixture (elimination of BBR and formation of its metabolites) ([1]; 30 min): 52.6 ± 1.9 nM
Concentration in incubation mixture (elimination of BBR and formation of its metabolites) ([1]; 60 min): 64.3 ± 1.6 nM
Concentration in incubation mixture (elimination of BBR and formation of its metabolites) ([1]; 120 min): 75.0 ± 1.0 nM
IC50 (CYP1A2; read-out: IC50 CYP1A2, direct inhibition, 95% confidence intervals in parentheses): > 100 µM
IC50 (CYP3A4; read-out: IC50 CYP3A4 (MDZ), direct inhibition, substrate MDZ, 95% confidence intervals in parentheses): 66 µM
IC50 (CYP3A4; read-out: IC50 CYP3A4 (TST), direct inhibition, substrate TST, 95% confidence intervals in parentheses): 7.3 µM
IC50 (CYP2C19; read-out: IC50 CYP2C19, direct inhibition, 95% confidence intervals in parentheses): > 100 µM
IC50 (CYP2E1; read-out: IC50 CYP2E1, direct inhibition, 95% confidence intervals in parentheses): 7.7 µM
IC50 (CYP2B6; read-out: IC50 CYP2B6, direct inhibition, 95% confidence intervals in parentheses): > 100 µM
MDI (metabolism-dependent inhibition) of CYP2D6 (in words) (CYP2D6 [2]): not
IC50 (CYP2D6 [2]; read-out: IC50 against CYP2D6, pre-incubation with NADPH, 30 min pre-incubation with NADPH): 54.9 µM
IC50 (CYP2D6 [2]; read-out: IC50 against CYP2D6, pre-incubation without NADPH, 30 min pre-incubation without NADPH): 34.7 µM
IC50 (CYP2C9; read-out: IC50 CYP2C9, direct inhibition, 95% confidence intervals in parentheses): > 100 µM
IC50 (CYP2D6 [3]; read-out: IC50 CYP2D6, pooled HLM, direct inhibition, substrate dextromethorphan, 95% confidence intervals in parentheses): 32 µM
IC50 (CYP2A6; read-out: IC50 CYP2A6, direct inhibition, 95% confidence intervals in parentheses): > 100 µM
SMILES: COc1ccc2cc3[n+](cc2c1OC)CCc1cc(O)c(O)cc1-3 [DMB, demethyleneberberine]
